Experimental data reported in patent publication US11065209B2, “Use of cannabidiol in the treatment of epilepsy” (GW Research Limited, priority 2015, dated 2021).
Where “and” joins values, the source holds several entries; their conditions need not be identical. Equal values may be shown once. Entries after “also recorded” stand apart in the source; their conditions may differ.

Legend:
seizures = conditions: as described in the literature; cited from earlier work
[1] = test system: seizures in patients with Tuberous Sclerosis Complex (TSC); experiment: Expanded access compassionate use program: CBD added to baseline AED in children and young adults with treatment-resistant Tuberous Sclerosis Complex, seizure diaries; assay type: in vivo, human
Method: The terms “50% responder” and “50% reduction in seizure” are both terms used in clinical studies. In the present application the terms define the percentage of subjects that experienced a greater than or equal to 50% reduction in the total number of seizures during treatment with CBD in comparison to the number experienced during the baseline period before the CBD was administered.
These subjects were tested with a highly purified extract of cannabidiol (CBD) obtained from a cannabis plant. The participants in the study were part of an expanded access compassionate use program for CBD.
All of these patients diagnosed with TSC presented with one or more types of seizure including tonic, tonic-clonic, atonic, absence, focal seizures with impairment and focal seizures which evolve to secondary generalised seizures.
All patients entered a baseline period of 4 weeks when parents/caregivers kept prospective seizure diaries, noting all countable seizure types.
The patients then received a highly purified CBD extract (greater than 98% CBD w/w) in sesame oil, of known and constant composition, at a dose of 5 mg/kg/day in addition to their baseline anti-epileptic drug (AED) regimen.
Laboratory testing for hematologic, liver, kidney function, and concomitant AED levels was performed at baseline, and after CBD therapy.
All patients were taking at least two concomitant anti-epileptic drugs. These included clobazam; diazepam; lacosamide; lamotrigine; levetiracetam; lorazepam; nordiazepam; n-desmethylclobazam; phenytoin; valproic acid; zonisamide. The average number of concomitant antiepileptic drugs being taken was 2.7. The majority took either clobazam and/or valproic acid.
There were 12 children and young adult patients who received at least 3 months of treatment all of whom suffered from treatment-resistant epilepsy with a diagnosis of Tuberous Sclerosis Complex (TSC).

[2] = Solubility of the drug substance in water; assay type: physicochemical
Description: The drug substance, CBD is insoluble in water. Sesame oil was selected as an excipient to solubilize the drug substance.

[3] = test system: seizures in adult patients; conditions: 200 mg/day of pure CBD; four adult patients; cited from earlier work
[4] = test system: seizures in adult patients with generalized epilepsy; conditions: eight adult patients with generalized epilepsy; cited from earlier work
seizures in mice = conditions: after pro-convulsant drugs or an electric current; cited from earlier work
[5] = test system: seizures in institutionalized adult patients; conditions: 200 mg/day of pure CBD; twelve institutionalized adult patients; open label; cited from earlier work
[6] = test system: seizures in a child with Lennox-Gastaut syndrome; conditions: CBD in an oily solution; cited from earlier work
[7] = share of patients, n = 2, after 12 weeks of treatment
[8] = share of patients, n = 3, after 12 weeks of treatment
[9] = share of patients, n = 5, after 12 weeks of treatment
[10] = share of patients, n = 10, after 12 weeks of treatment
[11] = share of patients, n = 14, after 12 weeks of treatment

## CCCCCc1cc(O)c2c(c1)OC(C)(C)[C@@H]1CCC(C)=C[C@@H]21 [THC, tetrahydrocannabinol]
seizures
  effect on seizures: pro-convulsant

## C=C(C)[C@@H]1CCC(C)=C[C@H]1c1c(O)cc(CCCCC)cc1O [CBD, cannabidiol]
[1]; TSC patients resistant to existing AED
  patients with at least a fifty percent reduction in the total number of seizures: half of the patients
[1]; TSC patients, 12 treated
  patients treated in whom total seizure frequency was reduced: over 80%
[1]; TSC patients, result in words
  effect on incidence of generalised seizure types tonic, atonic, tonic-clonic and absence seizures: dramatically reduce; also recorded: virtually eliminate
  effect on the number of focal seizures with impairment: markedly reduced
[1]; after 3 months of therapy, 12 patients
  TSC patients with a decrease in total seizure frequency: ten out of 12
[1]; individual TSC subjects 1-12, after 12 weeks treatment
  >50% reduction in seizures (total number of seizures): Yes (6×) and No (6×)
[1]; individual TSC subjects 1-12, after 12 weeks treatment, CBD 5 up to 25 mg/kg/day added to AED
  Change in baseline (%) for total number of seizures: −93.7% and −15.0% and −71.0% and −33.5% and −80.2% and 0.4% and −100.0% and −9.8% and −74.4% and 108.0% and −39.2% and −63.2%
[1]; over the 12 weeks of treatment, 12 patients
  TSC patients with a greater than 50% reduction in total seizures: six of the 12
[1]; patients that do not respond well to existing AED, result in words
  effect on the number of seizures: significantly reduces
[1]; [7]
  <50% reduction in seizures, absence seizures: 0%
  <50% reduction in seizures, focal seizures evolving to secondary generalisation: 50%
  <50% reduction in seizures, tonic-clonic seizures: 0%
  >50% reduction in seizures, absence seizures: 100%
  >50% reduction in seizures, focal seizures evolving to secondary generalisation: 50%
  >50% reduction in seizures, tonic-clonic seizures: 100%
[1]; [8]
  <50% reduction in seizures, atonic seizures: 0%
  >50% reduction in seizures, atonic seizures: 100%
[1]; [9]
  <50% reduction in seizures, tonic seizures: 25%
  >50% reduction in seizures, tonic seizures: 75%
[1]; [10]
  <50% reduction in seizures, focal seizures with impairment: 45%
  >50% reduction in seizures, focal seizures with impairment: 55%
[1]; [11]
  <50% reduction in seizures, total focal seizures: 55%
  >50% reduction in seizures, total focal seizures: 45%
[1]; the patients with at least 50% reduction, 12 weeks of treatment
  average reduction in the total number of seizures in the responders: 80.4% and 80%
[2]
  solubility in water: insoluble
[3]
  patients who became seizure free: two of the four
[4]
  patients with a marked reduction of seizures: 4
Seizures in mice
  prevention of seizures: able to prevent seizures
[5]
  controlling seizures: ineffective
[6]
  seizure frequency: improvement
